Publication PMC4355294, “The Ingenious Structure of Central Rotor Apparatus in VoV1; Key for Both Complex Disassembly and Energy Coupling between V1 and Vo” (PLoS ONE, 2015)

Columns and labels:
V1-H.s-DF = test system: T1, V1-H.s-DF; test: enzyme-coupled ATP regenerating ATPase assay, Michaelis-Menten fit; format: biochemical, Thermus thermophilus; conditions: 25°C; isolated V1
T1 construct: gene atpA
Excerpt: enzyme-coupled ATP regenerating ATPase assay, Michaelis-Menten fit on V1-H.s-DF

V1-E.h-DF = test system: T2, V1-E.h-DF; test: as above; format: biochemical, Thermus thermophilus; conditions: 25°C; isolated V1
T2 construct: gene atpA
Excerpt: enzyme-coupled ATP regenerating ATPase assay, Michaelis-Menten fit on V1-E.h-DF

Km (V1-H.s-DF): 480 ± 40 µM
Km (V1-E.h-DF): 760 ± 40 µM
SMILES: Nc1ncnc2c1ncn2[C@@H]1O[C@H](COP(=O)(O)OP(=O)(O)OP(=O)(O)O)[C@@H](O)[C@H]1O [ATP]
